Assay [1] has as its system patients with hemiplegia attributed to cerebrovascular disease (stroke). Kind of assay: Test of prevention of onset of post-stroke RSD. Type of assay: in vivo, human. The text has this: Test subjects were 33 patients with hemiplegia attributed to cerebrovascular disease (stroke) at Brunnstrom stage III or lower in either the upper limb or a finger on admission. Patients already developing RSD (shoulder-hand syndrome) on admission and patients with pain in the shoulder joint or swollen paralyzed limbs were excluded from the test. […] On the other hand, 21 test subjects were classified into a rehabilitation alone group (control group) and compared with the EL administration group. Physical therapy and therapeutic exercise, occupational therapy, and the management of the paralyzed limbs were performed thoroughly in all the cases. […] EL administration was initiated 11 to 59 days after an attack of stroke (25.8 days on average) and continued until 5 months after the attack of stroke. The same observation period was applied to the control group. The test subjects were diagnosed as developing RSD (shoulder-hand syndrome) if they had diffuse pain not localized to the shoulder joint, edema involving skin color changes, skin temperature abnormalities, and range of motion limitations, and the practice of their rehabilitation was restricted. These criteria agreed to Veldman's diagnostic criteria or diagnostic criteria, for CRPS-type 1 provided by the International Association for the Study of Pain.
Activities of daily living (ADL) were evaluated on the basis of the Barthel Index (BI) and the range of motion (ROM) of shoulder joint. The movable range of shoulder joint (also referred to as “shoulder ROM”) was regarded as restricted (Shoulder-ROM-restrictions were present.) if either abduction or flexion was restricted in measurement. The test subjects were also examined for sensory impairment, aphasia, and unilateral spatial neglect on admission.
Statistical analysis was conducted with unpaired t-test, Fisher's exact test, or Wilcoxon test, and 5% or lower significance level was regarded as being significant.

For assay [2], the system named is patients with hemiplegia attributed to cerebrovascular disease (stroke) who developed RSD (shoulder-hand syndrome). The assay can be described thus: Test of treatment of post-stroke RSD. Type of assay: in vivo, human. The conditions noted are these: therapeutic administration group, at completion of administration. The method, then:
EL was administered after the onset of RSD (shoulder-hand syndrome) in the same use and dose as in Example 1 to 11 patients with hemiplegia attributed to cerebrovascular disease (stroke) at Brunnstrom stage III or lower in either the upper limb or a finger on admission, who developed RSD (shoulder-hand syndrome). These patients were classified into a therapeutic administration group. On the other hand, the EL administration group of Example 1 was compared as a control (preventive administration group) with the therapeutic administration group.

Assay [3] deals with RSD triggered and developed by a trauma or surgical invasion. As to conditions: subjects having no anamnesis of RSD, after a trauma or surgical invasion; cited from earlier work.
Where [4] appears, read: EL preventive administration group (12 subjects), 20 units intramuscularly once a week, continued until 5 months after stroke.
The mark [5] stands for this setting: preventive administration group, at completion of administration.

“1-butyric acid-7-(L-2-aminobutyric acid)-26-L-aspartic acid-27-L-valine-29-L-alanine-calcitonin [elcatonin]”: the “Incidence of RSD converted to all patients with hemiplegia attributed to stroke in the facility” value in assay [1] (EL administration group, control group approximately 8.7%) was “approximately 1.3%”. In addition, in assay [1] (setting [4]), the “The number of test subjects developing post-stroke RSD: Developed” value was found to be 1 and the “The number of test subjects developing post-stroke RSD: Not developed” value came out at 11. The “Cases that developed RSD (incidence)” value in assay [1] (EL preventive administration group, 1 of the 12 cases, control group 52.4%) is 8.3%. Further, in assay [1] (cases with administration initiated within 48 days after stroke), the “Incidence of RSD when EL administration was initiated within 48 days after stroke” value turned out to be 0%. Further, in assay [1] (setting [5]), the “Barthel index, Average ± SE” value was 60.8 ± 9.3; the “Barthel index, Median” value was 72.5; the “No RSD, the number of persons” value was found to be 11. Also, the “Incidence of RSD until discharge from hospital compared with the unadministered patient group” value in assay [1] (repetitive administration to hemiplegia patients without RSD on admission) was “suppressed significantly and remarkably”. Further, in assay [2], the “Barthel index, Average ± SE” value came out at 31.8 ± 7.8; the “Barthel index, Median” value was determined as 25; the “No RSD, the number of persons” value turned out to be 0.

Turning to `O=C1O[C@H]([C@@H](O)CO)C(O)=C1O` [vitamin C], the “Preventive effect on the initial onset of RSD” value in assay [3] is “preventive effect”.

Values taken from patent US8053409B2, “Agent for prophylaxis of reflex sympathetic dystrophy after cerebral apoplexy” (Asahi Kasei Pharma Corporation, priority 2006, dated 2011).
